We go through 25 compounds from US11021444B2, “Antiviral compounds” (priority 2013, dated 2021).

In one data set the test system is RSV replicon. The data set is described as follows: microbe, parasite or virus in culture. Format: cell-based. The following applies: human respiratory syncytial virus, read-out: EC50, the concentration of the drug required for reducing RSV replicon RNA by 50%.
The test system of data set [1] is Respiratory Syncytial Virus (RSV) long strain. The data set is described as follows: microbe, parasite or virus in culture. The following applies: human respiratory syncytial virus, Tables A and B list compounds by EC50 band. Format: cell-based. In a few lines: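 CPE-reduction format: viability measured colorimetrically with CCK-8 (450 nm, 630 nm reference) after 3-4 h, following 5-day infection at 37 °C, 5% CO2. Cells were HEp-2; inoculum 100 TCID50/well; duplicate 9-point 1/3 series starting at 100 μM or 1 μM.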

Data set [2] in a line: Cytotoxicity Determination (CCK-8, without addition of virus). It is filed as cell-based. The following applies: human, 50% cytotoxicity concentration (CC50). A digest of the protocol: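 Cytotoxicity was measured by CCK-8 after 3-4 hours at 37 °C, following 5 days of uninfected exposure at 37 °C and 5% CO2. Compounds ran as duplicate 7-point 1/2 dilutions starting at 100 μM, with 1% final DMSO. HEp-2 cells had been plated at 1,500/well the day before.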

For the next data set, the target named is recombinant RSV complex (Human respiratory syncytial virus A, UniProt P28887). In words: RSV Polymerase Inhibition Assay. It is filed as biochemical. A digest of the protocol:
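Inhibition measured as reduced incorporation of radiolabel into RNA products, detected by scintillation counting. Reactions: recombinant RSV complex (10 nM), RNA oligonucleotides, Tris-HCl pH 7.5, 6 mM MgCl2, inhibitor titration, 2 h at 30 °C, EDTA stop.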

Setting [3] is: HEp-2, 120 h, read-out: 50% effective concentration (EC50), HEp-2 cells infected with RSV long strain, 5 days, CCK-8 readout.
The mark [4] stands for this setting: 120 h, read-out: 50% effective concentration (EC50), HEp-2 cells infected with RSV long strain, 5 days, CCK-8 readout.

Like-named read-outs stand apart in the source and are kept apart here.

recombinant RSV complex, sequence (P28887 whole entry): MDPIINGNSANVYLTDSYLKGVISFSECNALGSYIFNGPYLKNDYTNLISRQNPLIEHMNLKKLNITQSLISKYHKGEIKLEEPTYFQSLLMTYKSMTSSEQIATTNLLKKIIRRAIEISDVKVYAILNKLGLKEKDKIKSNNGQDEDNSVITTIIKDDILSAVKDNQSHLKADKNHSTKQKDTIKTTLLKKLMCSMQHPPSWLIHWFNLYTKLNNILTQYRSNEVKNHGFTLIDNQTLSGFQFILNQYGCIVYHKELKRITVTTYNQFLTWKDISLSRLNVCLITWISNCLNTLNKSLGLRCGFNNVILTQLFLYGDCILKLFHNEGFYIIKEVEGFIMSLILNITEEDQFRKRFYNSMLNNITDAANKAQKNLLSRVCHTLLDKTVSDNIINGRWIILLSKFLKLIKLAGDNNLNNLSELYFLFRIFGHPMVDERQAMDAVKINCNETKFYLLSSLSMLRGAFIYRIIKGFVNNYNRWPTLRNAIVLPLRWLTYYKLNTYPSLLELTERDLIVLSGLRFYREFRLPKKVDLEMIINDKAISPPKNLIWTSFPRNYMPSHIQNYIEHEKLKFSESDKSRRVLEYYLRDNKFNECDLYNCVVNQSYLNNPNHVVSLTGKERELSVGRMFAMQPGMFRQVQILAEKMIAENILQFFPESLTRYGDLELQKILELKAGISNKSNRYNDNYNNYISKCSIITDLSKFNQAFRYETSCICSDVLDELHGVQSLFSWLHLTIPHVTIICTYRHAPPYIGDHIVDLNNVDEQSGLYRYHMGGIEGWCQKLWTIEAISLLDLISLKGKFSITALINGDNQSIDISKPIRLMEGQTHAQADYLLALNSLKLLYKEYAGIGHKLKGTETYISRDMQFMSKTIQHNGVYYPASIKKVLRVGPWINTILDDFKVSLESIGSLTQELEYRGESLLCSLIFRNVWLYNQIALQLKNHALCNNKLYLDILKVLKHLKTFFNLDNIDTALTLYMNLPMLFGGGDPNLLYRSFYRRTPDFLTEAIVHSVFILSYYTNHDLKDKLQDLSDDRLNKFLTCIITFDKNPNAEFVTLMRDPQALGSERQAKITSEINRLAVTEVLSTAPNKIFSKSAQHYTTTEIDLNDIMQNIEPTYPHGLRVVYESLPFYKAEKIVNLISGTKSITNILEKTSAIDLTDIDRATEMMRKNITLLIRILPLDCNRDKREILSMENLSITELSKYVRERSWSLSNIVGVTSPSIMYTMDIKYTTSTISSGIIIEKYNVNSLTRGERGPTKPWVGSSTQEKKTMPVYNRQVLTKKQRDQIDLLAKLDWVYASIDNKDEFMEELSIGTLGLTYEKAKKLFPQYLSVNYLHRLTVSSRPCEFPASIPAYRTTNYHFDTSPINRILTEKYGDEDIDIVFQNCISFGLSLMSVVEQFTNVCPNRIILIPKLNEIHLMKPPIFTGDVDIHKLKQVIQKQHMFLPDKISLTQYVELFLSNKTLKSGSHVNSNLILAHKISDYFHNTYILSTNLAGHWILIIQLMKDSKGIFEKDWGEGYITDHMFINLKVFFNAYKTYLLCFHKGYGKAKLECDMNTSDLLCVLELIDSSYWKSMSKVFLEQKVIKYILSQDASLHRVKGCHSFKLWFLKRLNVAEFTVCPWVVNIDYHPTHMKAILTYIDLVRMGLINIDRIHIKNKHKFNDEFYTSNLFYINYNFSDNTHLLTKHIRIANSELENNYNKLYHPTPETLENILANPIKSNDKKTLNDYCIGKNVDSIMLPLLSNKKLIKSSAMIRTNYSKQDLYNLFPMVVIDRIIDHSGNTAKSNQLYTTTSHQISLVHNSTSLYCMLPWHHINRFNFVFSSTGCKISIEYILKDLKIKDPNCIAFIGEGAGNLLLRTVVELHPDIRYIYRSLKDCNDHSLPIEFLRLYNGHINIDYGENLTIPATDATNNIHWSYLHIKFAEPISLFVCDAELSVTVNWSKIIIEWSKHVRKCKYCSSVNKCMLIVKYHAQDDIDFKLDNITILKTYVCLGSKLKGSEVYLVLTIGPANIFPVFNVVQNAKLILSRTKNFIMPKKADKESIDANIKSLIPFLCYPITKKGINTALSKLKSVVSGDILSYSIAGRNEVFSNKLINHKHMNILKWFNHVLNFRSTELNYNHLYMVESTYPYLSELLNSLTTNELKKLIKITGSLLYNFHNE
recombinant RSV complex, sequence (P03421 whole entry, further chain): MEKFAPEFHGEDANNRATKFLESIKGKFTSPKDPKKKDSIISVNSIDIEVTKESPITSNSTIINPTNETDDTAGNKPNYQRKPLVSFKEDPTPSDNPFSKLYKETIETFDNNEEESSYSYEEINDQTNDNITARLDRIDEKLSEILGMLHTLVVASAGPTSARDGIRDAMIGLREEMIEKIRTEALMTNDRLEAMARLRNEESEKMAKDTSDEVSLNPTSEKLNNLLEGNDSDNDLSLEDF

Take `COc1cc(C(=O)NCC(O)(c2cc3c(c(-c4ccc(F)c(Cl)c4)n2)OCC3(C)N)C(F)(F)F)ccc1OCCO` (stereo not shown) [Compound 638]: the EC50 (in the data set on RSV replicon; in data set [1] (setting [3])) was < 1000 nM each time. Further, the CC50 at 5 days in data set [2] is 10000 to 100000 nM. Further, the concentration for half-maximal inhibition (IC50) at recombinant RSV complex is < 1000 nM.

`COc1cc(C(=O)NC[C@@](O)(c2cc(C(C)(C)N)cc(-c3ccc(F)cc3)n2)C(F)(F)F)ccc1OCC(N)=O` [Compound 561]: the figures for the EC50 (in the data set on RSV replicon; in data set [1] (setting [3])) were < 1000 nM and 1000 to 50000 nM, respectively. Also, in data set [2], the CC50 at 5 days is > 100000 nM. Besides, the IC50 at recombinant RSV complex was < 10000 nM.

As to `CC#CC(O)(CNC(=O)c1ccc(OCCF)c(OC)c1)c1ccc(OC)c(-c2ccc(F)c(Cl)c2)n1` (stereo not shown) [Compound 124], the EC50 (with RSV replicon; in data set [1] (setting [3])) was < 1000 nM in each case. Besides, in data set [2], the CC50 at 5 days lay in the range of 10000 to 100000 nM. The IC50 at recombinant RSV complex was < 10000 nM.

For `COc1cc(C(=O)NCC(O)(CF)c2ccc(OC)c(-c3ccc(F)c(Cl)c3)n2)ccc1OCCO` (stereo not shown) [Compound 424], the EC50 (with RSV replicon; in data set [1] (setting [3])) was < 1000 nM in each case. The compound also showed a CC50 at 5 days in data set [2] of 10000 to 100000 nM. Also, the IC50 at recombinant RSV complex is < 1000 nM.

Turning to `COc1cc(C(=O)NCC(C)(F)c2ccc(OC)c(-c3ccc(F)c(Cl)c3)n2)ccc1OCCF` (stereo not shown) [Compound 364], the EC50 (with RSV replicon; in data set [1] (setting [3])) was < 1000 nM throughout. In data set [2], this compound yielded a CC50 at 5 days of 10000 to 100000 nM. The IC50 on recombinant RSV complex is < 1000 nM.

With `CCNC(=O)NC(C)(C)c1cc(-c2ccc(F)c(Cl)c2)nc(C(O)(CNC(=O)c2ccc(OC3CC3)c(OC)c2)C(F)(F)F)c1` (stereo not shown) [Compound 387], the EC50 (in the data set with RSV replicon; in data set [1] (setting [3])) was < 1000 nM throughout. Further, the half-maximal cytotoxic concentration (CC50) at 5 days in data set [2] is > 100000 nM. Also, the IC50 at recombinant RSV complex was < 1000 nM.

Take `COc1cc(C(=O)NCC(O)(CC2CNC2)c2ccc(OC)c(-c3ccc(F)c(Cl)c3)n2)ccc1OC1CC1` (stereo not shown) [Compound 461]: the EC50 was 1000 to 50000 nM with RSV replicon and < 1000 nM in data set [1] (setting [3]). Also, the CC50 at 5 days in data set [2] lay within 10000 to 100000 nM. The IC50 at recombinant RSV complex was < 1000 nM.

`COc1cc(C(=O)NCC(O)(c2cc3c(c(-c4ccc(F)c(Cl)c4)n2)OCCC3(C)C)C2CC2)ccc1OCCO` (stereo not shown) [Compound 312]: the EC50 (in the data set on RSV replicon; in data set [1] (setting [3])) was < 1000 nM throughout. In data set [2], this compound showed a CC50 at 5 days of 10000 to 100000 nM. Also, at recombinant RSV complex, the IC50 is < 1000 nM.

As to `COc1cc(C(=O)NCC(C)(O)c2ccc(OC)c(-c3ccc(F)c(Br)c3)n2)ccc1OCCF` (racemic) [Compound 118], the EC50 (in the data set with RSV replicon; in data set [1] (setting [3])) was < 1000 nM in each case. In data set [2], this compound showed a CC50 at 5 days of 10000 to 100000 nM. Besides, the IC50 at recombinant RSV complex was < 1000 nM.

On to `COc1cc(C(=O)NCC(O)(c2ccc(OC)c(-c3ccc(F)c(Cl)c3)n2)C(F)(F)F)ccc1OC1COC1` (stereo not shown) [Compound 250], for which the EC50 (with RSV replicon; in data set [1] (setting [4])) was < 1000 nM each time. This compound registered a CC50 at 5 days in data set [2] of 10000 to 100000 nM. The IC50 on recombinant RSV complex is < 1000 nM.

Turning to `COc1cc(C(=O)NCC(O)(c2ccc(OC)c(-c3ccc(F)c(Cl)c3)n2)C(F)(F)F)ccc1OCCO` (stereo not shown) [Compound 334], the EC50 (in the data set on RSV replicon; in data set [1] (setting [3])) was < 1000 nM each time. The same compound gave a CC50 at 5 days in data set [2] of 10000 to 100000 nM. Further, on recombinant RSV complex, the IC50 was < 1000 nM.

Turning to `COc1cc(C(=O)NCC(O)(c2cc(C(C)(C)N(C)C)cc(-c3ccc(F)c(Cl)c3)n2)C(F)(F)F)ccc1OC1CC1` (stereo not shown) [Compound 400], the EC50 (in the data set with RSV replicon; in data set [1] (setting [4])) was < 1000 nM in each case. In data set [2], the CC50 at 5 days lay in the range of 10000 to 100000 nM. For the same compound, the IC50 at recombinant RSV complex was < 1000 nM.

Take `COc1cc(C(=O)NCC(F)(c2ccc(OC)c(-c3ccc(F)c(Cl)c3)n2)C2CC2)ccc1OCCO` (stereo not shown) [Compound 366]: the EC50 (in the data set on RSV replicon; in data set [1] (setting [3])) was < 1000 nM throughout. The same compound displayed a CC50 at 5 days in data set [2] of 10000 to 100000 nM. Further, the IC50 at recombinant RSV complex is < 1000 nM.

For the compound `COc1cc(C(=O)OCC(O)(CN)c2ccc(OC)c(-c3ccc(F)c(Cl)c3)n2)ccc1OC1CC1` (stereo not shown) [Compound 383], the EC50 (in the data set with RSV replicon; in data set [1] (setting [3])) was < 1000 nM in each case. For the same compound, in data set [2], the CC50 at 5 days was 10000 to 100000 nM. For the same compound, the IC50 at recombinant RSV complex is < 1000 nM.

For `COc1cc(C(=O)NCC(O)(c2cc3c(c(-c4ccc(F)cc4)n2)OCC3(C)N)C(F)(F)F)cc2cccnc12` (stereo not shown) [Compound 635], the EC50 (in the data set on RSV replicon; in data set [1] (setting [3])) was < 1000 nM in each case. Further, the CC50 at 5 days in data set [2] is 10000 to 100000 nM. Besides, the IC50 at recombinant RSV complex is < 1000 nM.

Turning to `CCC(O)(CNC(=O)c1ccc(OCCF)c(OC)c1)c1ccc(OC)c(-c2ccc(F)c(Cl)c2)n1` (single isomer, unassigned) [Compound 122a], the EC50 (in the data set on RSV replicon; in data set [1] (setting [3])) was < 1000 nM throughout. In data set [2], the CC50 at 5 days lay in the range of 10000 to 100000 nM. Moreover, the IC50 at recombinant RSV complex is < 1000 nM.

Take `COc1cc(C(=O)NCC(O)(c2cc(C(C)(N)CF)cc(-c3ccc(F)cc3)n2)C(F)(F)F)ccc1OCCO` (single isomer, unassigned) [Compound 664]: the EC50 (in the data set with RSV replicon; in data set [1] (setting [3])) was < 1000 nM in each case. The compound further gave a CC50 at 5 days in data set [2] of 10000 to 100000 nM. Besides, the IC50 on recombinant RSV complex was < 1000 nM.

On to `COc1cc(C(=O)NCC(O)(c2cc(C(C)(C)NC(C)=O)cc(-c3ccc(F)cc3)n2)C(F)(F)F)ccc1OCC(N)=O` (stereo not shown) [Compound 621], for which the EC50 (in the data set with RSV replicon; in data set [1] (setting [3])) was < 1000 nM throughout. Moreover, the CC50 at 5 days in data set [2] is > 100000 nM. The IC50 on recombinant RSV complex was < 1000 nM.

`COc1cc(C(=O)NCC(O)(c2ccc(OC)c(-c3ccc(F)c(Cl)c3)n2)C(F)(F)F)ccc1OCC(F)F` (stereo not shown) [Compound 373]: the EC50 (with RSV replicon; in data set [1] (setting [3])) was < 1000 nM in each case. The CC50 at 5 days in data set [2] was > 100000 nM. The IC50 at recombinant RSV complex was < 1000 nM.

Regarding `COc1cc(C(=O)NCC(O)(c2cc(C(C)(C)N)c(OC)c(-c3ccc(F)cc3)n2)C(F)(F)F)ccc1OC1CC1` (stereo not shown) [Compound 594], the EC50 (with RSV replicon; in data set [1] (setting [3])) was < 1000 nM throughout. In data set [2], this compound had a CC50 at 5 days of 10000 to 100000 nM. Also, at recombinant RSV complex, the IC50 was < 1000 nM.

With `COc1cc(C(=O)NCC(O)(c2ccc(OC)c(-c3ccc(F)c(Cl)c3)n2)C(F)(F)F)ccc1OC1CC(F)(F)C1` (stereo not shown) [Compound 244], the EC50 (in the data set with RSV replicon; in data set [1] (setting [3])) was < 1000 nM each time. The CC50 at 5 days in data set [2] is > 100000 nM. Further, at recombinant RSV complex, the IC50 is < 1000 nM.

In the case of `COc1cc(C(=O)NCC(O)(c2cc(C(C)(C)NC3COC3)cc(-c3ccc(F)c(Cl)c3)n2)C(F)(F)F)ccc1OC1CC1` (stereo not shown) [Compound 577], the EC50 (in the data set on RSV replicon; in data set [1] (setting [3])) was < 1000 nM each time. The compound also had a CC50 at 5 days in data set [2] of 10000 to 100000 nM. For the same compound, the IC50 on recombinant RSV complex was < 1000 nM.

Turning to `COc1cc(C(=O)NCC(O)(c2cc(C(C)(N)C(N)=O)cc(-c3ccc(F)c(Cl)c3)n2)C(F)(F)F)ccc1OC1CC1` (stereo not shown) [Compound 536], the EC50 (with RSV replicon; in data set [1] (setting [3])) was < 1000 nM each time. For the same compound, in data set [2], the CC50 at 5 days fell in the range of 10000 to 100000 nM. For the same compound, on recombinant RSV complex, the IC50 was < 1000 nM.

With `COc1cc(C(=O)NCC(O)(c2cc(CN)cc(-c3ccc(F)c(Cl)c3)n2)C(F)(F)F)ccc1OC1CC1` (stereo not shown) [Compound 327], the EC50 (in the data set on RSV replicon; in data set [1] (setting [3])) was < 1000 nM each time. The CC50 at 5 days in data set [2] fell in the range of 10000 to 100000 nM. Moreover, at recombinant RSV complex, the IC50 was < 1000 nM.

`COc1cc(C(=O)NCC(O)(c2cc(C(C)(C)N)cc(-c3ccc(F)c(Cl)c3)n2)C(F)(F)F)ccc1OCC(C)(C)O` (stereo not shown) [Compound 396]: the EC50 (in the data set on RSV replicon; in data set [1] (setting [3])) was < 1000 nM in each case. For the same compound, the CC50 at 5 days in data set [2] is 10000 to 100000 nM. In addition, the IC50 at recombinant RSV complex is < 1000 nM.
